IC50 cytotoxicity (DAPI nuclear signal decrease) and IC50 data for 27 molecules are collected here from PubChem BioAssay AID651630 (Sanford-Burnham Center for Chemical Genomics, 2012).

Structures are written as SMILES. The source made the active and inactive calls.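 Rule for the calls: active = lipid-stain IC50 at or below a set limit, with nuclear-stain toxicity IC50 at least five times higher; inactive = the rest.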 Where only a bound is given, the exact number is not on record here.

In one experiment the test system is DAPI. The experiment is described as follows: triacylglycerol accumulation inhibitor potency, dose response, cell-based, panel, Nile Red and DAPI fluorescence, H9c2 (AID 651630).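 Note: cells exposed to compound overnight before fixation and staining.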 The following applies: H9c2 cells, DAPI nuclear fluorescence (cytotoxicity counter-readout), oleic acid.
For the next experiment, the system named is TAG. Described as above. Particulars: H9c2 cells, Nile Red TAG fluorescence, oleic acid.

In the case of `CCCCCc1cc(=O)oc2c(C(CCN(CC)CC)c3cc(OC)c(OC)c(OC)c3)c(OC)cc(OC)c12` (stereo not given), the IC50 cytotoxicity (DAPI nuclear signal decrease) is > 25 µM (inactive) with DAPI (mean of runs), > 25 µM with DAPI (run 1) and > 25 µM with DAPI (run 2). For the same molecule, the figures for the IC50 with TAG (mean of runs), with TAG (run 1) and with TAG (run 2) were > 25 µM (inactive), > 25 µM and > 25 µM, respectively.

In the case of `COc1ccc2[nH]c(C)c(CCNCc3cn(C)c4ccccc34)c2c1`, the results for the IC50 cytotoxicity (DAPI nuclear signal decrease) in the experiment with DAPI (mean of runs), in the experiment on DAPI (run 1) and in the experiment with DAPI (run 2) were > 25 µM (inactive), > 25 µM and > 25 µM, respectively. Besides, the IC50 was 10.7 µM in the experiment with TAG (mean of runs), 10.2 µM in the experiment on TAG (run 1) and 11.2 µM with TAG (run 2).

Turning to `COc1ccc(CC(N)c2csc(NC(=O)Nc3ccccc3-c3ccccc3)n2)cc1` (stereo not given), the IC50 cytotoxicity (DAPI nuclear signal decrease) is 17.6 µM (inactive) in the experiment on DAPI (mean of runs), 19.3 µM in the experiment on DAPI (run 1) and 15.9 µM in the experiment with DAPI (run 2). Besides, the IC50 with TAG (run 1) was > 25 µM; with TAG (run 2), 15.5 µM.

For `COc1ccc(NC(=S)N(CCCN2CCCC2)Cc2cccn2Cc2ccc(Cl)cc2)cc1Cl`, the IC50 cytotoxicity (DAPI nuclear signal decrease) in the experiment with DAPI (run 1) was 24.1 µM; with DAPI (run 2), > 25 µM. In addition, the IC50 in the experiment with TAG (run 1) is 16.8 µM; in the experiment with TAG (run 2), > 25 µM.

Take `CN(Cc1ccc(Cl)cc1)C(=O)CCl`: the results for the IC50 cytotoxicity (DAPI nuclear signal decrease) in the experiment with DAPI (mean of runs), in the experiment on DAPI (run 1) and in the experiment on DAPI (run 2) were > 25 µM (inactive), > 25 µM and > 25 µM, respectively. The IC50 is > 25 µM (inactive) in the experiment with TAG (mean of runs), > 25 µM with TAG (run 1) and > 25 µM in the experiment on TAG (run 2).

For `Cc1nn(-c2cccc(Cl)c2)c2nc(-c3ccncc3)cc(C(=O)N3CCOCC3)c12`, the results for the IC50 cytotoxicity (DAPI nuclear signal decrease) with DAPI (mean of runs), in the experiment with DAPI (run 1) and in the experiment with DAPI (run 2) were > 25 µM (inactive), > 25 µM and > 25 µM, respectively. Moreover, the figures for the IC50 in the experiment on TAG (mean of runs), in the experiment on TAG (run 1) and in the experiment with TAG (run 2) were > 25 µM (inactive), > 25 µM and > 25 µM, respectively.

`Cc1ccc(NC(=O)CSc2nnc(C)c(=O)n2N)cc1Cl`: the IC50 cytotoxicity (DAPI nuclear signal decrease) in the experiment on DAPI (mean of runs) is > 25 µM (inactive); in the experiment with DAPI (run 1), > 25 µM; in the experiment on DAPI (run 2) it was > 25 µM. Besides, the IC50 with TAG (run 1) is 24 µM; in the experiment on TAG (run 2), > 25 µM.

In the case of `COc1cccc(Nc2nnc(SCc3cc([N+](=O)[O-])cc4c3OCOC4)s2)c1`, the values for the IC50 cytotoxicity (DAPI nuclear signal decrease) with DAPI (mean of runs), with DAPI (run 1) and in the experiment on DAPI (run 2) were > 25 µM (inactive), > 25 µM and > 25 µM, respectively. Besides, the IC50 with TAG (mean of runs) was > 25 µM (inactive); in the experiment with TAG (run 1) it was > 25 µM; in the experiment with TAG (run 2), > 25 µM.

With `C=CCC[C@@H](Cc1ccc(F)cc1)C(=O)OC[C@H](Cc1c[nH]c2ccccc12)NC(=O)[C@@H](CC=C)CC(=O)N(CCO)Cc1ccccc1`, the IC50 cytotoxicity (DAPI nuclear signal decrease) in the experiment on DAPI (mean of runs) was > 25 µM (inactive); in the experiment with DAPI (run 1), > 25 µM; in the experiment with DAPI (run 2), > 25 µM. Moreover, the values for the half-inhibitory concentration (IC50) in the experiment with TAG (mean of runs), with TAG (run 1) and with TAG (run 2) were 13.1 µM, 10.7 µM and 15.4 µM, respectively.

Consider `CCCCCc1cc(=O)oc2c(C(CCN(CC)CC)c3ccc(OC)cc3)c(OC)cc(OC)c12` (stereo not given), for which the IC50 cytotoxicity (DAPI nuclear signal decrease) in the experiment with DAPI (mean of runs) was > 25 µM (inactive); with DAPI (run 1), > 25 µM; in the experiment with DAPI (run 2), > 25 µM. In addition, the IC50 is > 25 µM (inactive) in the experiment on TAG (mean of runs), > 25 µM in the experiment with TAG (run 1) and > 25 µM in the experiment on TAG (run 2).

Take `CC(C)Cc1nc2sc3c(NCc4ccco4)ncnc3c2c2c1COC(C)(C)C2`: the IC50 cytotoxicity (DAPI nuclear signal decrease) is > 25 µM (inactive) with DAPI (mean of runs), > 25 µM in the experiment on DAPI (run 1) and > 25 µM with DAPI (run 2). Moreover, the figures for the IC50 in the experiment on TAG (mean of runs), in the experiment with TAG (run 1) and in the experiment with TAG (run 2) were > 25 µM (inactive), > 25 µM and > 25 µM, respectively.

On to `Cc1c(C(=O)N2CC3(CC(c4cccc(NC(=O)CC(c5ccccc5)c5ccccc5)c4)=NO3)C[C@@H]2C(N)=O)cc([N+](=O)[O-])cc1[N+](=O)[O-]` (stereo not given in full), for which the IC50 cytotoxicity (DAPI nuclear signal decrease) with DAPI (mean of runs) was > 25 µM (inactive); with DAPI (run 1), > 25 µM; with DAPI (run 2), > 25 µM. For the same molecule, the half-inhibitory concentration (IC50) in the experiment with TAG (mean of runs) is 12.2 µM; with TAG (run 1) it was 11.8 µM; in the experiment with TAG (run 2), 12.6 µM.

Regarding `O=C(CCl)N(CCCNC(=O)C(F)(F)F)c1ccc([N+](=O)[O-])cc1`, the IC50 cytotoxicity (DAPI nuclear signal decrease) was > 25 µM (inactive) in the experiment on DAPI (mean of runs), > 25 µM with DAPI (run 1) and > 25 µM in the experiment with DAPI (run 2). Further, the IC50 in the experiment on TAG (mean of runs) was > 25 µM (inactive); in the experiment with TAG (run 1) it was > 25 µM; in the experiment with TAG (run 2) it was > 25 µM.

For `O=C(N/N=C/c1ccc(Cl)cc1)c1sccc1OCc1ccc(F)cc1`, the IC50 cytotoxicity (DAPI nuclear signal decrease) was > 25 µM (inactive) in the experiment with DAPI (mean of runs), > 25 µM in the experiment with DAPI (run 1) and > 25 µM with DAPI (run 2). Moreover, the results for the IC50 in the experiment with TAG (mean of runs), in the experiment on TAG (run 1) and in the experiment on TAG (run 2) were > 25 µM (inactive), > 25 µM and > 25 µM, respectively.

Consider `Cc1cccc(-c2ccc3[nH]c4c(c3c2)CCN2C[C@@H]([C@H](C)O)[C@@H](N(C)C(=O)Nc3ccc(F)cc3)C[C@@H]42)c1`, for which the values for the IC50 cytotoxicity (DAPI nuclear signal decrease) in the experiment on DAPI (mean of runs), in the experiment with DAPI (run 1) and in the experiment on DAPI (run 2) were > 25 µM (inactive), > 25 µM and > 25 µM, respectively. Besides, the IC50 was 18 µM in the experiment with TAG (run 1) and > 25 µM in the experiment with TAG (run 2).

With `CC(C)C[C@H]1CNC(=S)N1CC1CCCN1C[C@H](CC(C)C)N1C[C@H](CC(C)C)N(CCc2ccccc2)C1=S` (stereo not given in full), the IC50 cytotoxicity (DAPI nuclear signal decrease) is > 25 µM (inactive) with DAPI (mean of runs), > 25 µM in the experiment with DAPI (run 1) and > 25 µM with DAPI (run 2). The IC50 is 14.4 µM with TAG (mean of runs), 15.3 µM with TAG (run 1) and 13.4 µM in the experiment on TAG (run 2).

On to `CCCCC(CC)C(=O)Nc1cc(C(=O)NCc2ccc(C)cc2)ccc1N1CCC2(CC1)CC(c1ccccc1)=NO2` (stereo not given), for which the IC50 cytotoxicity (DAPI nuclear signal decrease) with DAPI (run 1) and with DAPI (run 2) was > 25 µM throughout. Moreover, the IC50 in the experiment with TAG (mean of runs) is 3.47 µM; in the experiment with TAG (run 1), 3.44 µM; in the experiment with TAG (run 2) it was 3.5 µM.

As to `Cc1ccccc1NC(=O)CSc1nc(Nc2ccccc2)nc(N2CCOCC2)n1`, the IC50 cytotoxicity (DAPI nuclear signal decrease) with DAPI (mean of runs) is > 25 µM (inactive); with DAPI (run 1), > 25 µM; in the experiment with DAPI (run 2), > 25 µM. In addition, the IC50 was 12.9 µM in the experiment with TAG (mean of runs), 15.7 µM with TAG (run 1) and 10 µM with TAG (run 2).

As for `CCn1ncc(/C=N/N=C2\CCC3C4CCc5cc(O)ccc5C4CCC23C)c1C` (stereo not given), the IC50 cytotoxicity (DAPI nuclear signal decrease) in the experiment on DAPI (mean of runs) is > 25 µM (inactive); in the experiment on DAPI (run 1), > 25 µM; in the experiment with DAPI (run 2) it was > 25 µM. Further, the IC50 was > 25 µM (inactive) in the experiment with TAG (mean of runs), > 25 µM in the experiment on TAG (run 1) and > 25 µM in the experiment on TAG (run 2).

On to `CCCCN1C(=O)/C(=C/C=C2/C=Cc3ccccc3N2CC)SC1=S`, for which the IC50 cytotoxicity (DAPI nuclear signal decrease) in the experiment on DAPI (run 1) and in the experiment on DAPI (run 2) was > 25 µM each time. The IC50 was 4.3 µM with TAG (mean of runs), 2.4 µM with TAG (run 1) and 6.2 µM with TAG (run 2).

Turning to `Cc1cc(C)n(-c2nc3c(c(=O)[nH]c(=O)n3C)n2CC(O)COc2ccc(Cl)cc2Cl)n1` (stereo not given), the IC50 cytotoxicity (DAPI nuclear signal decrease) with DAPI (mean of runs) is > 25 µM (inactive); in the experiment on DAPI (run 1) it was > 25 µM; in the experiment on DAPI (run 2) it was > 25 µM. Further, the values for the IC50 in the experiment on TAG (run 1) and in the experiment on TAG (run 2) were 11.2 µM and > 25 µM, respectively.

In the case of `COc1ccc2[nH]c3c(c2c1)CCN1C(=O)C(CC(=O)NCc2cccc(C(F)(F)F)c2)C[C@H](C(=O)N2CCCCC2)[C@@]31CCc1ccccc1` (stereo not given in full), the IC50 cytotoxicity (DAPI nuclear signal decrease) is > 25 µM (inactive) in the experiment on DAPI (mean of runs), > 25 µM with DAPI (run 1) and > 25 µM in the experiment on DAPI (run 2). In addition, the figures for the IC50 in the experiment on TAG (mean of runs), with TAG (run 1) and in the experiment with TAG (run 2) were 10 µM, 14.8 µM and 5.34 µM, respectively.

Regarding `CCCCSc1nc2ccc(Nc3nc(N4CCOCC4)nc(N4CCOCC4)n3)cc2s1`, the IC50 cytotoxicity (DAPI nuclear signal decrease) with DAPI (run 1) and with DAPI (run 2) was > 25 µM each time. Further, the IC50 in the experiment with TAG (mean of runs) is 4.78 µM; with TAG (run 1), 4.98 µM; in the experiment on TAG (run 2), 4.59 µM.

As for `COc1cc(OC)c2c(-c3ccccc3)cc(=O)oc2c1C(CCN1CCCC(C)C1)c1ccc2c(c1)OCO2` (stereo not given), the IC50 cytotoxicity (DAPI nuclear signal decrease) is > 25 µM (inactive) in the experiment on DAPI (mean of runs), > 25 µM in the experiment on DAPI (run 1) and > 25 µM in the experiment on DAPI (run 2). Besides, the figures for the IC50 in the experiment with TAG (run 1) and in the experiment with TAG (run 2) were > 25 µM and 13.7 µM, respectively.

Consider `O=P(O)(O)CN1CCNCCN(CP(=O)(O)O)CCNCC1`, for which the IC50 cytotoxicity (DAPI nuclear signal decrease) in the experiment with DAPI (mean of runs) is > 25 µM (inactive); in the experiment with DAPI (run 1), > 25 µM; in the experiment on DAPI (run 2), > 25 µM. Further, the IC50 in the experiment with TAG (run 1) is 24.7 µM; in the experiment on TAG (run 2), > 25 µM.

For the molecule `COc1ccc(C#Cc2ccc3c(c2)O[C@@H](CN(C)C(=O)Nc2cccc(OC)c2)[C@H](C)CN([C@@H](C)CO)S3(=O)=O)cc1`, the IC50 cytotoxicity (DAPI nuclear signal decrease) in the experiment on DAPI (mean of runs) was > 25 µM (inactive); in the experiment with DAPI (run 1) it was > 25 µM; with DAPI (run 2) it was > 25 µM. Besides, the IC50 in the experiment with TAG (mean of runs) was 8.47 µM; with TAG (run 1) it was 7.39 µM; in the experiment with TAG (run 2) it was 9.55 µM.

On to `CCC(C)(C)C1CCC2(CC1)NC(=O)N(CC(=O)NCCc1ccc(OC)c(OC)c1)C2=O` (stereo not given), for which the IC50 cytotoxicity (DAPI nuclear signal decrease) with DAPI (run 1) and with DAPI (run 2) was > 25 µM throughout. The results for the IC50 in the experiment on TAG (mean of runs), with TAG (run 1) and with TAG (run 2) were 3.29 µM, 1.91 µM and 4.67 µM, respectively.
